System: human PBMCs
Test: Human PBMC cytokine response assay (IFN-γ and IFN-α in cell-free medium by ELISA), with or without cPLGA;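 for IFN-α (pg/ml) mean: 20 µg/mL compound for 24 hours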;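 for IFN-γ (pg/ml) mean: 20 µg/mL compound for 24 hours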
Format: cell-based
[1] = Table 24, mean of donors 28234-28237
[2] = Table 25, mean of donors 28250-28253
[3] = donor 28066, 20 ug/ml, 24 h, + PLGA = premixed with 100 μg/ml cPLGA
[4] = donor 28067, 20 ug/ml, 24 h, + PLGA = premixed with 100 μg/ml cPLGA
[5] = donor 28068, 20 ug/ml, 24 h, + PLGA = premixed with 100 μg/ml cPLGA
[6] = mean of Donors 3-4, 20 μg/ml, 24 h
[7] = mean of donors 28065-28068, 20 ug/ml, 24 h, + PLGA = premixed with 100 μg/ml cPLGA
[8] = mean of donors 28185-28188, Table 15
[9] = mean of donors 110, 112, 119, 120, Table 14

5′-TCGTCGA-3′-C3-5′-TCGTCGA-3′-C3-5′-TCGTCGA-3′ [Compound C-90]
IFN-α (Table 24, donor 28234): 16 pg/mL
IFN-γ (Table 24, donor 28234): 7 pg/mL
IFN-α (Table 24, donor 28235): 46 pg/mL
IFN-γ (Table 24, donor 28235): 118 pg/mL
IFN-α (Table 24, donor 28236): 117 pg/mL
IFN-γ (Table 24, donor 28236): 497 pg/mL
IFN-α (Table 24, donor 28237): 345 pg/mL
IFN-γ (Table 24, donor 28237): 1586 pg/mL
IFN-α mean [1]: 131 pg/mL
IFN-γ mean [1]: 552 pg/mL
IFN-γ induction, in words (used alone): similar

5′-ACGTTCG-3′ [Compound P-3, reference compound]
IFN-α (pg/ml) Donor 3 (Donor 3, 20 μg/ml, 24 h): 0 pg/mL
IFN-γ (pg/ml) Donor 3 (Donor 3, 20 μg/ml, 24 h): 1 pg/mL
IFN-α (pg/ml) Donor 4 (Donor 4, 20 μg/ml, 24 h): 32 pg/mL
IFN-γ (pg/ml) Donor 4 (Donor 4, 20 μg/ml, 24 h): 3 pg/mL
IFN-a (Table 25, donor 28250): 16 pg/mL
IFN-g (Table 25, donor 28250, polynucleotides/spacers at amounts equivalent to the CIC, spacers alone 9 uM): 32 pg/mL
IFN-a (Table 25, donor 28251): 29 pg/mL
IFN-g (Table 25, donor 28251): 21 pg/mL
IFN-a (Table 25, donor 28252): 38 pg/mL
IFN-g (Table 25, donor 28252): 72 pg/mL
IFN-a (Table 25, donor 28253): 31 pg/mL
IFN-g (Table 25, donor 28253): 1 pg/mL
IFN-a mean [2]: 29 pg/mL
IFN-g mean [2]: 31 pg/mL
IFN-γ (pg/ml) 28065 (donor 28065 (high background), 20 ug/ml, 24 h, + PLGA = premixed with 100 μg/ml cPLGA, 1000 = outside assay limits): 94 pg/mL
IFN-α (pg/ml) 28065 (donor 28065, 20 ug/ml, 24 h, + PLGA = premixed with 100 μg/ml cPLGA): 0 pg/mL
IFN-α (pg/ml) 28066 [3]: 0 pg/mL
IFN-γ (pg/ml) 28066 [3]: 27 pg/mL
IFN-α (pg/ml) 28067 [4]: 5 pg/mL
IFN-γ (pg/ml) 28067 [4]: 1 pg/mL
IFN-α (pg/ml) 28068 [5]: 0 pg/mL
IFN-γ (pg/ml) 28068 [5]: 0 pg/mL
IFN-α (pg/ml) mean [6]: 16 pg/mL
IFN-γ (pg/ml) mean [6]: 2 pg/mL
IFN-α (pg/ml) mean [7]: 1 pg/mL
IFN-γ (pg/ml) mean [7]: 31 pg/mL
immunomodulatory activity (IFN-γ / IFN-α secretion), in words (used alone (no cPLGA)): did not have immunomodulatory activity

5′-TCGTCGA-3′-HEG-5′-AACGTTC-3′-HEG-5′-TCGTCGA-3′ [Compound C-55]
IFN-α (Table 13, donor 28156): 9 pg/mL
IFN-γ (Table 13, donor 28156): 511 pg/mL
IFN-α (Table 13, donor 28157): 5 pg/mL
IFN-γ (Table 13, donor 28157): 566 pg/mL
IFN-α (Table 13, donor 28158): 63 pg/mL
IFN-γ (Table 13, donor 28158): 55 pg/mL
IFN-α (Table 13, donor 28159): 3 pg/mL
IFN-γ (Table 13, donor 28159): 186 pg/mL
IFN-α mean (Table 13, mean of donors): 20 pg/mL
IFN-γ mean (Table 13, mean of donors): 329 pg/mL

5′-TGCTGCA-3′-C3-5′-AGCTTGC-3′-C3-5′-AGATGAT-3′ (No CG) [Compound C-86]
IFN-a (donor 28185, Table 15): 7 pg/mL
IFN-g (donor 28185, Table 15): 1 pg/mL
IFN-a (donor 28186, Table 15): 4 pg/mL
IFN-g (donor 28186, Table 15): 4 pg/mL
IFN-a (donor 28187, Table 15): 4 pg/mL
IFN-g (donor 28187, Table 15): 30 pg/mL
IFN-a (donor 28188, Table 15): 31 pg/mL
IFN-g (donor 28188, Table 15): 5 pg/mL
IFN-a (pg/ml) mean [8]: 11 pg/mL
IFN-g (pg/ml) mean [8]: 10 pg/mL
IFN-a (pg/ml) ×2 (mean ×2, Table 15): 22 pg/mL
IFN-g (pg/ml) ×4 (mean ×4, Table 15): 40 pg/mL

5′-ACGTTCG-3′-HEG-5′-AGATGAT-3′-HEG-5′-TCGTCGA-3′ [Compound C-58]
IFN-α (Table 13, donor 28156): 13 pg/mL
IFN-γ (Table 13, donor 28156): 404 pg/mL
IFN-α (Table 13, donor 28157): 30 pg/mL
IFN-γ (Table 13, donor 28157): 288 pg/mL
IFN-α (Table 13, donor 28158): 29 pg/mL
IFN-γ (Table 13, donor 28158): 59 pg/mL
IFN-α (Table 13, donor 28159): 23 pg/mL
IFN-γ (Table 13, donor 28159): 84 pg/mL
IFN-α mean (Table 13, mean of donors): 24 pg/mL
IFN-γ mean (Table 13, mean of donors): 209 pg/mL

TMEA-(5′-TGACTGTGAACGTTCGAGATGA-3′)3 (SEQ ID NO: 139) (See Ex. 23) [Compound C-99]
IFN-α (donor 110, Table 14): 22 pg/mL
IFN-γ (donor 110, Table 14): 276 pg/mL
IFN-α (donor 112, Table 14): 4 pg/mL
IFN-γ (donor 112, Table 14): 12 pg/mL
IFN-α (donor 119, Table 14): 86 pg/mL
IFN-γ (donor 119, Table 14): 16 pg/mL
IFN-α (donor 120, Table 14): 2 pg/mL
IFN-γ (donor 120, Table 14): 40 pg/mL
IFN-γ induction when formulated with cPLGA, in words (formulated with cPLGA): induced IFN-γ only when formulated with cPLGA
IFN-α (pg/ml) mean [9]: 29 pg/mL
IFN-γ (pg/ml) mean [9]: 86 pg/mL
IFN-α induction, in words (used alone): did not induce IFN-α

Source: US9028845B2, “Chimeric immunomodulatory compounds and methods of using the same-IV” (Dynavax Technologies Corporation, priority 2001, dated 2015)
